{
  "source": "patent US6683162B2",
  "about": "“Targeted alpha particle therapy using actinium-255 conjugates” (Sloan Kettering Institute of Cancer Research, priority 2000, dated 2004)",
  "key": {"[1]": {"assay": "Stability of 225Ac complexes of simple chelants: yttrium challenge and C-25 column elution", "protocol": "Approximately, 200 μCi of ^225Ac solution was mixed with 10 μl of 50 mM of a ligand solution (such as DOTA) and pH was adjusted to about 6-6.5 with 33 μl of 3 M ammonium acetate. The reaction was kept in a water bath at 37° C. for completion in 2 hours. Reaction yield was monitored using 10 mM NaOH/9% NaCl solvent. Then, 10 μl of 77.5 mM Yttrium chloride solution was added to react with excess chelants for 30 minutes. There are two reasons for adding the 1.5 fold excess Yttrium: 1) if ^225Ac complex is not stable, Yttrium will replace ^225Ac c, and 2) Yttrium will react with chelants and make a final solution at metal excess. The excess metal will be held on a C-25 purification column and the radiometal complex can pass through the column. Therefore, the purified solution should contain a 1:1 metal to ligand ratio for the stability studies.\nEach reaction solution was purified through a 1 ml C-25 column using a 5 ml of normal saline as eluting buffer. The first 2.5 ml elution was collected for the stability study. The activity in the eluate and the activity retaining on the column were measured using a dose calibrator 20 hours after purification."}, "[2]": {"assay": "Long-term in vitro stability of 225Ac-DOTA complex in 25% human serum (ITLC)", "type": "in vitro ADME", "details": "37° C., after 1 month", "protocol": "100% human serum (Sigma Chemical Co., St. Louis, Mo.), 100% mouse serum and 25% human serum albumin (Swiss Red Cross, Bern, Switzerland) was used to determine stability of the ^225 Ac complexes and conjugates. Aliquots in serum are mixed with diethylenetriaminepentaacetic acid (DPTA) (Aldrich Chemical Co., Milwaukee, Wis.). ITLC was utilized with either a 10 mM EDTA or 10 mM NaOH/9% NaCl solvent system and ITLC SG strips (Gelman Science Inc., Ann Arbor, Mich.) to assess the complexation and conjugation efficiency of the chelants. The ITLC strips were analyzed by gas ionization detection with an Ambis 4000 (Ambis, San Diego, Calif.).\nLong-term in vitro stability of the ^225Ac-DOTA complex was tested by mixing 100 μl of the purified sample with 900 μl of 25% human serum. The ^225Ac-DOTA and solution was incubated at 37° C. and sampled periodically over the course of 30 days. The samples were analyzed by ITLC."}, "[3]": {"assay": "Liver accumulation of free 225Ac (acetate) injected into a mouse", "type": "in vivo", "protocol": "In contrast to these two [225Ac]DOTA-IgG constructs, free ^225Ac (acetate) injected into a mouse rapidly accumulates in the liver: 40%, 40%, 65% at 24 h, 48 h, and 120 h, respectively."}, "[4]": {"test_system": "human HL60 leukemia cells", "details": "Bi-213 construct, S.A. 8.4 Ci/g; cited from earlier work"}, "leukemia cells": {"test_system": "leukemia cells", "details": "cumulative doses of up to 3.7 GBq (100 mCi); cited from earlier work"}, "[5]": {"details": "after yttrium addition, C-25 column"}},
  "note": "Like-named read-outs stand apart in the source and are kept apart here.",
  "data": [
    {"compound": "O=C(O)CN(CCN(CC(=O)O)CC(=O)O)CCN(CC(=O)O)CC(=O)O", "note": "(225Ac complex, metal not drawn) [DTPA]", "values": [
      {"measurement": "stability of 225Ac complex (all 225Ac retained on the column)", "setting": "[1]", "result": "unstable"}
    ]},
    {"compound": "O=C([O-])CN1CCN(CC(=O)[O-])CCN(CC(=O)[O-])CCN(CC(=O)[O-])CC1.[225Ac+3]", "note": "[225Ac-DOTA]", "values": [
      {"measurement": "percentage of 225Ac activity eluted from the column", "setting": "[1]; after […] excess yttrium, 1 ml C-25 column, normal saline, activity measured 20 hours after purification", "result": 98.7, "unit": "%"},
      {"measurement": "metal remains complexed", "setting": "[2]", "result": 85, "unit": "%"}
    ]},
    {"compound": "O=C(O)CCN1CCN(CCC(=O)O)CCN(CCC(=O)O)CCN(CCC(=O)O)CC1", "note": "[DOTPA]", "values": [
      {"measurement": "stability of 225Ac complex (all 225Ac retained on the column)", "setting": "[1]; [5]", "result": "unstable"}
    ]},
    {"compound": "O=C(O)CN1CCCN(CC(=O)O)CCN(CC(=O)O)CCCN(CC(=O)O)CC1", "note": "[TETA]", "values": [
      {"measurement": "stability of 225Ac complex (all 225Ac retained on the column)", "setting": "[1]; [5]", "result": "unstable"}
    ]},
    {"compound": "O=C(O)CCN1CCCN(CCC(=O)O)CCN(CCC(=O)O)CCCN(CCC(=O)O)CC1", "note": "[TETPA]", "values": [
      {"measurement": "stability of 225Ac complex (all 225Ac retained on the column)", "setting": "[1]; [5]", "result": "unstable"}
    ]},
    {"compound": "CC(=O)[O-].CC(=O)[O-].CC(=O)[O-].[225Ac+3]", "note": "[free 225Ac (acetate)]", "values": [
      {"measurement": "accumulation in the liver", "setting": "[3]; 24 h", "result": 40, "unit": "%"},
      {"measurement": "accumulation in the liver", "setting": "[3]; 48 h", "result": 40, "unit": "%"},
      {"measurement": "accumulation in the liver", "setting": "[3]; 120 h", "result": 65, "unit": "%"}
    ]},
    {"compound": "[Bi-213]HuM195: 213Bi alpha-particle emitting HuM195 antibody construct, comparator", "values": [
      {"measurement": "LD50", "setting": "[4]", "result": "200,000 pCi/mL"},
      {"measurement": "tumorocidal activity for leukemia cells", "setting": "leukemia cells", "result": "major tumorocidal activity"}
    ]}
  ]
}
